# Data: US6358885B1, “Substituted phenylheterocyclic herbicides” (Mississippi State University, priority 1992, dated 2002)
# Assays:
# cocklebur = test: Test B preemergence/postemergence greenhouse plant response rating 0 to 10; assay type: in vivo, Xanthium pensylvanicum; conditions: 0 to 10 scale
# Method in brief: (§1)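 Both application timings were run together: seeds got compound preemergence, and established seedlings (two to eighteen cm) got it postemergence. Non-phytotoxic solvent carried the chemical. Ratings are visual, versus controls, at twelve to sixteen days.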
# corn = test: Test C preemergence/postemergence greenhouse plant response rating 0 to 100; assay type: in vivo, Zea mays; conditions: POSTEMERGENCE
# Method in brief: (§2)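 Compounds in non-phytotoxic solvent applied preemergence to sandy loam one day after planting, postemergence at the 1–4 leaf stage, or to ~2.5 cm floodwater over silt loam.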
# rice [1] = test: Test B preemergence/postemergence greenhouse plant response rating 0 to 10; assay type: in vivo, Oryza sativa; conditions: 0 to 10 scale
# Method in brief: as §1
# velvetleaf = test: Test C preemergence/postemergence greenhouse plant response rating 0 to 100; assay type: in vivo, Abutilon theophrasti; conditions: POSTEMERGENCE
# Method in brief: as §2
# pigweed = test: as above; assay type: in vivo, Amaranthusretroflexus; conditions: POSTEMERGENCE
# Method in brief: as §2
# umbrella sedge = test: Test C flood test plant response rating 0 to 100; assay type: in vivo, Cyperus difformis
# Method in brief: as §2
# giant foxtail = test: Test C preemergence/postemergence greenhouse plant response rating 0 to 100; assay type: in vivo, Setaria faberii; conditions: POSTEMERGENCE
# Method in brief: as §2
# duck salad = test: Test C flood test plant response rating 0 to 100; assay type: in vivo, Heteranthera limosa
# Method in brief: as §2
# wild buckwheat = test: Test B preemergence/postemergence greenhouse plant response rating 0 to 10; assay type: in vivo, Polygonum convolvulus; conditions: 0 to 10 scale
# Method in brief: as §1
# purple nutsedge = test: as above; assay type: in vivo, Cyperus rotundus; conditions: 0 to 10 scale
# Method in brief: as §1
# rice [2] = test: Test C flood test plant response rating 0 to 100; assay type: in vivo, Oryza sativa
# Method in brief: as §2
# cotton = test: Test C preemergence/postemergence greenhouse plant response rating 0 to 100; assay type: in vivo, Gossypium hirsutum; conditions: POSTEMERGENCE
# Method in brief: as §2
# sugar beet = test: as above; assay type: in vivo, Beta vulgaris; conditions: POSTEMERGENCE
# Method in brief: as §2
# bedstraw = test: as above; assay type: in vivo, Galium aparine; conditions: POSTEMERGENCE
# Method in brief: as §2
# blackgrass = test: as above; assay type: in vivo, Alopecurus myosuroides; conditions: POSTEMERGENCE
# Method in brief: as §2
# soybean = test: Test B preemergence/postemergence greenhouse plant response rating 0 to 10; assay type: in vivo, Glycine max; conditions: 0 to 10 scale
# Method in brief: as §1
# chickweed = test: Test C preemergence/postemergence greenhouse plant response rating 0 to 100; assay type: in vivo, Stellaria media; conditions: POSTEMERGENCE
# Method in brief: as §2
# [3] = POSTEMERGENCE section, flood test, Rate 1 g/ha
# [4] = POSTEMERGENCE section, flood test, Rate 4 g/ha
# [5] = Rate 16 g/ha, under POSTEMERGENCE head (flood test species)
# [6] = flood test species listed under POSTEMERGENCE, 62 g/ha, 0 to 100 scale
smiles,measurement,setting,value
COCN1C(=O)COc2cc(F)c(-c3nn4c(c3Cl)CCCC4)cc21 [Compound 55],"Plant response rating, Cocklebur","cocklebur; POSTEMERGENCE, Rate 10 g/ha",10
same,"Plant response rating, Cocklebur","cocklebur; POSTEMERGENCE, Rate 50 g/ha",10
same,"Plant response rating, Cocklebur","cocklebur; PREEMERGENCE, Rate 50 g/ha",2
same,"Plant response rating, Corn","corn; 62 g/ha, 0 to 100 scale",50
same,"Plant response rating (0 to 100), Corn",corn; Rate 1 g/ha,30
same,"Plant response rating (0 to 100), Corn",corn; Rate 4 g/ha,40
same,"Plant response rating (0 to 100), Corn",corn; Rate 16 g/ha,50
same,"Plant response rating, Rice","rice [1]; POSTEMERGENCE, Rate 10 g/ha",3
same,"Plant response rating, Rice","rice [1]; POSTEMERGENCE, Rate 50 g/ha",4
same,"Plant response rating, Rice","rice [1]; PREEMERGENCE, Rate 50 g/ha",0
same,"Plant response rating, Velvetleaf","velvetleaf; 62 g/ha, 0 to 100 scale",100
same,"Plant response rating (0 to 100), Velvetleaf",velvetleaf; Rate 1 g/ha,80
same,"Plant response rating (0 to 100), Velvetleaf",velvetleaf; Rate 4 g/ha,100
same,"Plant response rating (0 to 100), Velvetleaf",velvetleaf; Rate 16 g/ha,100
same,Plant response rating Pigweed,"pigweed; 62 g/ha, 0 to 100 scale",100
same,"Plant response rating (0 to 100), Pigweed",pigweed; Rate 1 g/ha,100
same,"Plant response rating (0 to 100), Pigweed",pigweed; Rate 4 g/ha,100
same,"Plant response rating (0 to 100), Pigweed",pigweed; Rate 16 g/ha,100
same,"Plant response rating (0 to 100), Umbrella sedge",umbrella sedge; [3],10
same,"Plant response rating (0 to 100), Umbrella sedge",umbrella sedge; [4],30
same,"Plant response rating (0 to 100), Umbrella sedge",umbrella sedge; [5],70
same,Plant response rating Umbrella sedge,umbrella sedge; [6],90
same,"Plant response rating, Giant foxtail","giant foxtail; 62 g/ha, 0 to 100 scale",50
same,"Plant response rating (0 to 100), Giant foxtail",giant foxtail; Rate 1 g/ha,20
same,"Plant response rating (0 to 100), Giant foxtail",giant foxtail; Rate 4 g/ha,30
same,"Plant response rating (0 to 100), Giant foxtail",giant foxtail; Rate 16 g/ha,40
same,"Plant response rating (0 to 100), Duck salad",duck salad; [3],0
same,"Plant response rating (0 to 100), Duck salad",duck salad; [4],0
same,"Plant response rating (0 to 100), Duck salad",duck salad; [5],10
same,Plant response rating Duck salad,duck salad; [6],50
same,"Plant response rating, Wild buckwheat","wild buckwheat; POSTEMERGENCE, Rate 10 g/ha",10
same,"Plant response rating, Wild buckwheat","wild buckwheat; POSTEMERGENCE, Rate 50 g/ha",0
same,"Plant response rating, Wild buckwheat","wild buckwheat; PREEMERGENCE, Rate 50 g/ha",10
same,"Plant response rating, Nutsedge","purple nutsedge; POSTEMERGENCE, Rate 10 g/ha",2
same,"Plant response rating, Nutsedge","purple nutsedge; POSTEMERGENCE, Rate 50 g/ha",2
same,"Plant response rating, Nutsedge","purple nutsedge; PREEMERGENCE, Rate 50 g/ha",0
same,"Plant response rating (0 to 100), Rice Japonica",rice [2]; [3],10
same,"Plant response rating (0 to 100), Rice Japonica",rice [2]; [4],30
same,"Plant response rating (0 to 100), Rice Japonica",rice [2]; [5],70
same,Plant response rating Rice Japonica,rice [2]; [6],90
same,"Plant response rating, Cotton","cotton; 62 g/ha, 0 to 100 scale",100
same,"Plant response rating (0 to 100), Cotton",cotton; Rate 1 g/ha,90
same,"Plant response rating (0 to 100), Cotton",cotton; Rate 4 g/ha,100
same,"Plant response rating (0 to 100), Cotton",cotton; Rate 16 g/ha,100
same,"Plant response rating, Sugar beet","sugar beet; 62 g/ha, 0 to 100 scale",100
same,"Plant response rating (0 to 100), Sugar beet",sugar beet; Rate 1 g/ha,100
same,"Plant response rating (0 to 100), Sugar beet",sugar beet; Rate 4 g/ha,100
same,"Plant response rating (0 to 100), Sugar beet",sugar beet; Rate 16 g/ha,100
same,"Plant response rating, Bedstraw","bedstraw; 62 g/ha, 0 to 100 scale",100
same,"Plant response rating (0 to 100), Bedstraw",bedstraw; Rate 1 g/ha,30
same,"Plant response rating (0 to 100), Bedstraw",bedstraw; Rate 4 g/ha,90
same,"Plant response rating (0 to 100), Bedstraw",bedstraw; Rate 16 g/ha,100
same,"Plant response rating, Blackgrass","blackgrass; 62 g/ha, 0 to 100 scale",60
same,"Plant response rating (0 to 100), Blackgrass",blackgrass; Rate 1 g/ha,30
same,"Plant response rating (0 to 100), Blackgrass",blackgrass; Rate 4 g/ha,40
same,"Plant response rating (0 to 100), Blackgrass",blackgrass; Rate 16 g/ha,50
same,"Plant response rating, Soybean","soybean; POSTEMERGENCE, Rate 10 g/ha",7
same,"Plant response rating, Soybean","soybean; POSTEMERGENCE, Rate 50 g/ha",9
same,"Plant response rating, Soybean","soybean; PREEMERGENCE, Rate 50 g/ha",0
same,"Plant response rating, Chickweed","chickweed; 62 g/ha, 0 to 100 scale",100
same,"Plant response rating (0 to 100), Chickweed",chickweed; Rate 1 g/ha,30
same,"Plant response rating (0 to 100), Chickweed",chickweed; Rate 4 g/ha,70
same,"Plant response rating (0 to 100), Chickweed",chickweed; Rate 16 g/ha,100
